# Literature values as cited in patent US20230310471A1, “METHODS, DEVICES, AND SYSTEMS FOR TREATING LENS PROTEIN AGGREGATION DISEASES” (priority 2022, published 2023).
# Tested on: vimentin
# Conditions: background statement, no experimental details printed
row,SMILES,vimentin degradation
1,"O=S(=O)(F)Cc1ccccc1 [PMSF, phenylmethylsulfonyl fluoride]",decrease vimentin degradation
2,CC(=O)N[C@@H](CC(C)C)C(=O)N[C@@H](CC(C)C)C(=O)N[C@H](C=O)CCCNC(=N)N [leupeptin],decrease vimentin degradation
